The source of these data is patent US6924309B2 (Children, Youth and Women's Health Service Incorporated, priority 1999, dated 2005).

For experiment [1], the system named is 5-LO. As to the kind of experiment: Effect on 5-LO catalysed oxidation of arachidonic acid. It counts as biochemical.
For experiment [2], the target named is T1, 12-LO (Sus scrofa, UniProt P16469).
T1 construct: purchased Cayman Chemical Company
T1 sequence (P16469 1-663): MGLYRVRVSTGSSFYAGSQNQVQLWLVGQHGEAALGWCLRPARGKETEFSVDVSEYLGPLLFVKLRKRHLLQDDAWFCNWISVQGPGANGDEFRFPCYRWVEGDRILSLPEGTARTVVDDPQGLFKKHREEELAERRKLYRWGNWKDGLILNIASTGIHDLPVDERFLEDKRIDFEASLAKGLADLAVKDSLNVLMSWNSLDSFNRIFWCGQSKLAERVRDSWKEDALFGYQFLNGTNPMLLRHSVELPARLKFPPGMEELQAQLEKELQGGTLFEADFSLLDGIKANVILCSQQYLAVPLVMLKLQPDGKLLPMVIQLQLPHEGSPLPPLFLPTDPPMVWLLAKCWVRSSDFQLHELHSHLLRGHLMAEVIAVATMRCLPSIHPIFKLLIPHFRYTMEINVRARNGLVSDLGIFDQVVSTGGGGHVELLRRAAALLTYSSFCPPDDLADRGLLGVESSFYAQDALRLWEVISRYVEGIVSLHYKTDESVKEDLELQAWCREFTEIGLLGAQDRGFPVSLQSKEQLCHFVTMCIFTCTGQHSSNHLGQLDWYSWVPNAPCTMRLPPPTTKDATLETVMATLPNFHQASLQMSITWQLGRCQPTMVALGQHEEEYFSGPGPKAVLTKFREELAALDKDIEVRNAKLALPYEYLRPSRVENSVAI
As to the kind of experiment: Effect on 12-LO catalysed oxidation of arachidonic acid. It counts as biochemical, porcine.

Experiment [3] concerns the target T2, 15-LO (Glycine max, UniProt P08170).
T2 construct: purchased Sigma Chemical Company
T2 sequence (P08170 1-839): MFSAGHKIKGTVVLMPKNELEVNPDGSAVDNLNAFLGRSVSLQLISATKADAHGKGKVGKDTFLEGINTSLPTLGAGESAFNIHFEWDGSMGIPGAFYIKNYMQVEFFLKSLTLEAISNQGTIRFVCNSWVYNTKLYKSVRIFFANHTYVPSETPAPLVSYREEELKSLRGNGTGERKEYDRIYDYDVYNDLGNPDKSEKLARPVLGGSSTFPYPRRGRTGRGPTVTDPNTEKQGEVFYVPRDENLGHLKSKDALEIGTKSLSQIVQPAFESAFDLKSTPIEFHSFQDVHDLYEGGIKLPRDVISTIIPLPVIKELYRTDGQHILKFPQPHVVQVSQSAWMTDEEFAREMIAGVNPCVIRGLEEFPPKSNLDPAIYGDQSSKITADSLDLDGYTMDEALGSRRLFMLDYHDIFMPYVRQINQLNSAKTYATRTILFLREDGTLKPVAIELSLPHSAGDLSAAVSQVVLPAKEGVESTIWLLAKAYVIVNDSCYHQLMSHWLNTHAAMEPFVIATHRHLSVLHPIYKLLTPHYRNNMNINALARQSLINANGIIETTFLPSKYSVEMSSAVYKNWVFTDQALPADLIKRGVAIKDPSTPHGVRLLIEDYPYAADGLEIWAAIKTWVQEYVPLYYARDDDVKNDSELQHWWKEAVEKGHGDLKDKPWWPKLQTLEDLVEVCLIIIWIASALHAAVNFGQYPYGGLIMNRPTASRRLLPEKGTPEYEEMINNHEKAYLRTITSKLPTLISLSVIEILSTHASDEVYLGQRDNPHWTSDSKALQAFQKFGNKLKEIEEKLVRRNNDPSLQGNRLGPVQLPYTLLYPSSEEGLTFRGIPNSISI
As to the kind of experiment: Effect on 15-LO catalysed oxidation of arachidonic acid. Conditions: for Ki: mixed inhibition pattern. It is filed as biochemical, soybean.

Experiment [4] is described as follows: Paw oedema. Conditions: in vivo.
For experiment [5], the system named is TNF-α. As to the kind of experiment: TNF-α production by human peripheral blood leukocytes. Conditions: Leukocyte, stimulus S. aureus, read-out: % Inhibition (compared to control) of TNF-α. It counts as cell-based. The procedure:
(§1) The effects of the nitroalkanes (Lx1-Lx5) on lymphocyte activation and cytokine production were examined. The ability of the PUFA to suppress mitogen-induced proliferation in response to PHA and S. aureus, and to inhibit cytokine production (TNFα and IFNγ), was assessed.

Experiment [6] relates to Plasmodium falciparum isolates 3D7, FC27, K+. As to the kind of experiment: Radiometric (3H-hypoxanthine) assay on asexual blood stages of P. falciparum. It is filed as cell-based. The procedure: Using the radiometric assay^(36), the effects of the Lx compounds were examined for antimalarial activity. The Plasmodium falciparum isolates used were 3D7, FC27, K^1 and K^+. These were maintained in human blood group O^+ erythrocytes essentially as described previously using RPM-1640 (HEPES modification) supplemented with 0.25% D-glucose, 0.2% Tess buffer (Sigma Chemical Co, Lt Louis, Mo.) and 10% heat inactivated (56° C., 20 min) human blood group AB serum. Cultures were maintained in tissue culture flasks (Corning, N.Y.) at 37° C. under an atmosphere of 1% 2, 5% CO2 in N2. P. falciparum cultures containing approximately 3.0:% parasitaemia were adjusted to 1×10^8 erythrocytes/ml. To 50 μl of the parasite-erythrocyte culture (5×10^6 erythrocytes) in wells of 96-well microdilution plates wvas added 50 μl of the designated concentration of fatty acid or equivalent amounts of solutions or media. The treated cultures were incubated at 37° C. for 4 h and then pulsed with 50 μl (2.5 μCi) of ^3H-hypoxanthine. After a further 18 h incubation the parasites-erythrocytes were harvested onto glass fibre filter papers using a cell harvester. The amount of radioactivity incorporated was measured in a β-counter. The results have been expressed as % inhibition of parasite growth i.e. the dpm in the fatty acid diluent−dpm in the fatty acid treated cultures/dpm in diluent×100.

Experiment [7] relates to IFN-γ. As to the kind of experiment: IFN-γ production by human peripheral blood leukocytes. It counts as cell-based. The conditions noted are these: Leukocyte, stimulus PHA, read-out: % Inhibition (compared to control) of IFN-γ. On the procedure:
as §1

Experiment [8] relates to human neutrophils. Briefly: AA-enhanced chemiluminescence in human neutrophils. It is filed as cell-based. The conditions noted are these: neutrophils pretreated with compound. The procedure:
Arachidonic acid (AA) is a natural agonist which stimulates oxygen radical production in neutrophils leading to tissue damage during inflammation. Studies were conducted to examine whether or not the Lx compounds could antagonise the effects of AA. Neutrophils were pretreated with Lx compounds and then examined for chemiluminescence response to AA addition. […] The effect of Lx compounds on AA-enhanced chemiluminescence in human neutrophils is shown graphically in FIG. 11.

Where two headings read alike, the source gives them in different places.

Regarding `CCCCCCCCCCCCCCCCCC[N+](=O)[O-]` [Lx1, 1-Nitrooctadecane], the “Effect on 5-LO catalysed oxidation of AA” value in experiment [1] was “Nil”. Also, in experiment [2], the “Effect on 12-LO catalysed oxidation of AA” value was “Nil”. Moreover, in experiment [3], the “Effect on 15-LO catalysed oxidation of AA” value is listed as “Nil”. In addition, the “Effect in paw oedema” value in experiment [4] is listed as “inflammatory”.

Regarding `CC/C=C\C/C=C\C/C=C\CCCCCCCC[N+](=O)[O-]` [Lx2, (z,z,z)-1-Nitro-9,12,15-octadecatriene], the inhibition (as a rule, the share of the control response that was lost under treatment) at 20 µM in experiment [5] amounted to 43.7%; in experiment [7] it was 40.4%. Also, in experiment [6], the “Antimalarial activity (in words)” value is on record as “most promising”. In addition, the “Effect on 15-LO catalysed oxidation of AA” value in experiment [3] is given as “Nil”.

Take `CCCCC/C=C\C/C=C\C/C=C\C/C=C\CCCC[N+](=O)[O-]` [Lx4, (a11-z)-1-Nitro-5,8,11,14-eicosatetraene]: the inhibition at 20 µM in experiment [5] worked out at 34%; in experiment [7], 79.8%. Also, the “Antimalarial activity on P. falciparum 3D7 (FIG. 1, in words)” value in experiment [6] (isolate 3D7) was “activity is lost”. The “Effect on 5-LO catalysed oxidation of AA” value in experiment [1] is recorded as “Nil”. Further, the “Effect on 12-LO catalysed oxidation of AA” value in experiment [2] is listed as “Nil”. For the same compound, the “Effect on 15-LO catalysed oxidation of AA” value in experiment [3] is “Nil”.

As for `CCCCCCCCCCCCCCCCCC(CCC(=O)O)[N+](=O)[O-]` (stereo not shown) [Lx6, 4-Nitrohenicosanoic acid], the “Effect on 5-LO catalysed oxidation of AA” value is on record as “Inhibitory” in experiment [1], “selective inhibitors” in experiment [1] (listed as 4-nitrohenicosanoic acid) and “inhibiting 5-LO” in experiment [1] (listed as 6a). For the same compound, in experiment [1] (read-out: IC50, 5-LO catalysed oxidation of AA), the IC50 (in general, the point on the concentration scale where inhibition reaches its midpoint) is 60 µM. Also, the “Effect on 12-LO catalysed oxidation of AA” value in experiment [2] was “Activatory”; in experiment [2] (listed as 6a) it was “Neither 8a nor 6a inhibits 12-LO”. For the same compound, the “Effect on 15-LO catalysed oxidation of AA” value in experiment [3] is given as “Activatory”; in experiment [3] (listed as 6a) it was “not 15LO”.

Turning to `CCCCCCCCCCCCCCCCCC(CCC(=O)O)(CCC(=O)O)[N+](=O)[O-]` [Lx8, 3-Heptadecyl-3-nitropentane-1,5-dicarboxylic acid], in experiment [1], the “Effect on 5-LO catalysed oxidation of AA” value is “Nil”. The “Effect on 12-LO catalysed oxidation of AA” value is “Activatory” in experiment [2] and “Neither 8a nor 6a inhibits 12-LO” in experiment [2] (listed as 8a). Besides, the “Effect on 15-LO catalysed oxidation of AA” value in experiment [3] was “Inhibitory”; in experiment [3] (listed as 3-heptadecyl-3-nitropentane-1,5-dicarboxylic acid) it was “selective inhibitors”; in experiment [3] (listed as 8a), “inhibitory effect”. Besides, the Ki amounted to 27.4 µM in experiment [3] (read-out: Ki, 15-LO catalysed oxidation of arachidonic acid) and 55.2 µM in experiment [3] (read-out: Kl (second inhibitor constant; printed Ki in Table 3), 15-LO catalysed oxidation of arachidonic acid).

With `CCCCC/C=C\C/C=C\C/C=C\C/C=C\CCCC(CCC(=O)O)(CCC(=O)O)[N+](=O)[O-]` [Lx9, 3-[(a11-Z)-Nonadeca-4,7,10,13-tetraenyl] 4-nitroheptane-1,7-dicarboxylic acid], the “Inhibition of AA-stimulated oxygen radical production (chemiluminescence)” value in experiment [8] was “particularly evident”. Also, in experiment [6], the “Antimalarial activity (in words)” value is listed as “did not have appreciable antimalarial activity”. The “Effect on 5-LO catalysed oxidation of AA” value in experiment [1] is “Activatory”. The “Effect on 12-LO catalysed oxidation of AA” value was “Inhibitory” in experiment [2], “selective inhibitors” in experiment [2] (listed as 3-(all-Z)-nonadeca4,7,10,13-tetraeny]-3-nitropertane-1,5-dicarboxylic acid) and “significant inhibitory effect” in experiment [2] (listed as 8b). In addition, the “Effect on 15-LO catalysed oxidation of AA” value in experiment [3] is recorded as “Nil”.
